Experimental data reported in patent US7479489B2, “Heterocyclic antiviral compounds” (Roche Palo Alto LLC, priority 2004, dated 2009).
pIC50: −log10 of the molar value.

Legend:
[1] = system: Renilla luciferase HCV replicon cells (2209-23); experiment: Renilla luciferase assay (HCV replicon); type: cell-based; conditions: 72 h; replicon level, three days incubation
HCV NS5B570n-BK = target: T1, HCV NS5B570n-BK (Hepatitis C virus genotype 1b, UniProt P26663); experiment: HCV NS5B RNA polymerase activity; type: biochemical, HCV BK strain
T1 construct: His tag (N); made in house; host or cells: E. coli strain M15
T1 sequence (P26663 2421-2989): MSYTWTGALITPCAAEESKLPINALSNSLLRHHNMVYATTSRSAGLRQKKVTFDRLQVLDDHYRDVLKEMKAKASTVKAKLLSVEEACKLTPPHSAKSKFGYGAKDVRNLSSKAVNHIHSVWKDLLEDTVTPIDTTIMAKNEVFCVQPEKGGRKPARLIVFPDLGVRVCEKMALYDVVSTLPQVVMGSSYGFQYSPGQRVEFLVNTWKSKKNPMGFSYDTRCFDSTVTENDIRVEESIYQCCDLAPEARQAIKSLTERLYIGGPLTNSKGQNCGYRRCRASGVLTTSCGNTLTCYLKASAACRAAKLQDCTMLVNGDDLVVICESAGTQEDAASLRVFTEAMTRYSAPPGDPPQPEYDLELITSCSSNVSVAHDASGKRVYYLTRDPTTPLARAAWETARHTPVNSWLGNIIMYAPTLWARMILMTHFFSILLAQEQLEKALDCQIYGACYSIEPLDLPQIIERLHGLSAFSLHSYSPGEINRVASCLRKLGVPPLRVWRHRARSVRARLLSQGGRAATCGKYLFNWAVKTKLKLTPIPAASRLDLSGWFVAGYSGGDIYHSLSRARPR
Procedure: The enzymatic activity of HCV NS5B570n-BK is measured as incorporation of radiolabeled nucleotide monophosphates into acid insoluble RNA products. Unincorporated radiolabel substrate is removed by filtration and scintillant is added to the washed and dried filter plate containing radiolabeled RNA product. The light emitted by the scintillant is proportional to the amount of RNA product generated by NS5B570n-BK at the endpoint of the reaction.
The N-terminally histidine tagged HCV polymerase, derived from HCV BK strain, genotype 1b (NS5B570n-BK) contains a 21 amino acid deletion at the C-terminus relative to the full-length HCV polymerase and is purified from E. coli strain M15. The construct containing the coding sequence of HCV BK strain amino acid residues 2421-2999 (GenBank accession number M58335) downstream of a […] promoter expression cassette was inserted into plasmid constructs. The plasmid constructs are transformed in E. coli and colonies are inoculated and grown overnight in 10 L of Terrific broth (Tartoff and Hobbs) supplemented with 100 μg/mL ampicillin at 37° C. Protein expression is induced by addition of 1 mM isopropyl-β-D-thiogalactopyranoside (IPTG), when optical densities reaches between 1.5 and 3.5 OD600 and the culture is then incubated for 16- to 18 h at 22° C. NS5B570n-BK is purified to homogeneity using a three step protocol including subsequent column chromatography on Ni-NTA, SP-Sepharose HP and Superdex 75 resins.
Each 50 μl enzymatic reaction contains 8:4 μg/mL polyA:oligo U16 (template:primer), 20 nM or 200 nM NS5B570n-BK enzyme, 1 μCi of tritiated UTP (Perkin Elmer catalog no. TRK412; specific activity: 30 to 60 Ci/mmol; stock solution concentration from 7.5×10^−5 M to 20.6×10^−6 M), 40 mM Tris-HCl pH 8.0, 2 to 40 mM NaCl, 4 mM DTT (dithiothreitol), 4 mM MgCl2, and 5 μl of compound serial diluted in DMSO. Reaction mixtures are assembled in MADVNOB 96-well filter plates (Millipore Co.) and incubated for 2 h at 30° C. Reactions are stopped by addition of 10% (v/v) trichloroacetic acid and incubated for 40 min at 4° C. Reactions are filtered, washed with 8 reaction volumes of 10% (v/v) trichloroacetic acetic acid, 4 reaction volumes of 70% (v/v) ethanol, air dried, and 25 μl of scintillant (Microscint 20, Perkin-Elmer) is added to each reaction well.
The amount of light emitted from the scintillant is converted to counts per minute (CPM) on a Topcount® plate reader (Perkin-Elmer, Energy Range: Low, Efficiency Mode: Normal, Count Time: 1 min, Background Subtract: none, Cross talk reduction: Off).
Data is analyzed with GraphPad® Prism® and/or Microsoft® Excel®. The reaction in the absence of enzyme is used to determine the background signal, which is subtracted from the enzymatic reactions. Positive control reactions are performed in the absence of compound, from which the background corrected activity is set as 100% polymerase activity. All data is expressed as a percentage of the positive control. The compound concentration at which the enzyme-catalyzed rate of RNA synthesis is reduced by 50% (IC50) is calculated by fitting equation (i) to
[formula] the data, where “Y” corresponds to the relative enzyme activity (in %), “% Min” is the residual relative enzymatic activity at saturating compound concentration, “% Max” is the maximal relative enzymatic activity compared to positive control, X corresponds to the compound concentration, and “S” is the Hill coefficient (or slope).
Alternatively the assay can be run as described above with the following modifications. The polyA:oligo U16 homopolymeric RNA template:primer is replaced by the heteropolymeric cIRES RNA template at concentrations of 20 nM or 200 nM. The cIRES RNA template is derived from the complementary sequence of the Internal Ribosome Entry site of the HCV genome (nucleotide 1 through 378 at the 5′-end of the negative strand of the HCV genome (EMBL database accession number AJ238799). The reaction mixture is supplemented with 1 μM ATP, CTP, and GTP […]

CS(=O)(=O)Nc1ccc2c(c1)S(=O)(=O)C=C(c1c(O)c3cc(F)c(F)cc3n(Cc3ccc(F)cc3)c1=O)N2 [Compound I-69, N-{3-[6,7-Difluoro-1-(4-fluoro-benzyl)-4-hydroxy-2-oxo-1,2-dihydro-quinolin-3-yl]-1,1-dioxo-1,4-dihydro-1λ^6-benzo[1,4]thiazin-7-yl}-methanesulfonamide]
pIC50 [1]: 7.82
pIC50 (HCV NS5B570n-BK; 20 nM cIRES): 7.84

CS(=O)(=O)Nc1ccc2c(c1)S(=O)(=O)C=C(c1c(O)c3cc(F)ccc3n(Cc3ccc(F)cc3)c1=O)N2 [Compound I-24, N-{3-[6-Fluoro-1-(4-fluoro-benzyl)-4-hydroxy-2-oxo-1,2-dihydro-quinolin-3-yl]-1,1-dioxo-1,4-dihydro-1λ^6-benzo[1,4]thiazin-7-yl}-methanesulfonamide]
pIC50 [1]: 7.89
pIC50 (HCV NS5B570n-BK; 20 nM cIRES): 8.26
pIC50 (HCV NS5B570n-BK; 200 nM cIRES): 7.17
pIC50 (HCV NS5B570n-BK; 200 nM polyA: oligo U16): 6.82

NC(=O)COc1ccc2c(c1)S(=O)(=O)C=C(c1c(O)c3cc(F)ccc3n(Cc3ccc(F)cc3)c1=O)N2 [Compound I-20, 2-{3-[6-Fluoro-1-(4-fluoro-benzyl)-4-hydroxy-2-oxo-1,2-dihydro-quinolin-3-yl]-1,1-dioxo-1,4-dihydro-1λ^6-benzo[1,4]thiazin-7-yloxy}-acetamide]
pIC50 [1]: 5.98
pIC50 (HCV NS5B570n-BK; 200 nM polyA: oligo U16): 6.82

CC(C)(C)[C@H]1C(O)=C(C2=CS(=O)(=O)c3cc(NS(C)(=O)=O)ccc3N2)C(=O)N1Cc1ccc(F)c(Cl)c1 [II-11, N-{3-[(S)-5-tert-Butyl-1-(3-chloro-4-fluoro-benzyl)-4-hydroxy-2-oxo-2,5-dihydro-1H-pyrrol-3-yl]-1,1-dioxo-1,4-dihydro-1λ^6-benzo[1,4]thiazin-7-yl}-methanesulfonamide]
pIC50 [1]: 8.05
pIC50 (HCV NS5B570n-BK; 20 nM cIRES): 8.34

NS(=O)(=O)Nc1ccc2c(c1)S(=O)(=O)C=C(c1c(O)c3cc(F)ccc3n(CCC3CC3)c1=O)N2 [Compound I-40, 1-{3-[1-(2-cyclopropyl-ethyl)-6-fluoro-4-hydroxy-2-oxo-1,2-dihydro-quinolin-3-yl]-1,1-dioxo-1,4-dihydro-1λ^6-benzo[1,4]thiazin-7-yl}-sulfamide]
pIC50 [1]: 8.05
pIC50 (HCV NS5B570n-BK; 200 nM polyA: oligo U16): 6.46
melting point: 183 to 186 °C

CCS(=O)(=O)Nc1ccc2c(c1)S(=O)(=O)C=C(c1c(O)c3cc(F)ccc3n(CCC3CC3)c1=O)N2 [Compound I-32, ethanesulfonic acid {3-[1-(2-cyclopropyl-ethyl)-6-fluoro-4-hydroxy-2-oxo-1,2-dihydro-quinolin-3-yl]-1,1-dioxo-1,4-dihydro-1λ6-benzo[1,4]thiazin-7-yl}-amide]
pIC50 [1]: 8.30
pIC50 (HCV NS5B570n-BK; 20 nM cIRES): 8.14
pIC50 (HCV NS5B570n-BK; 200 nM polyA: oligo U16): 6.66
melting point: 140 to 142 °C
